Data published in ChEMBL document CHEMBL1155463 (J Med Chem, 2010).
In brackets after ≈: the same amount, converted by molar mass.

Tests used:
[1] = physchem
Description: Ionization constant, pKa by spectrophotometry

[2] = physchem; details: phosphate buffer, pH 9.9
Description: Thermodynamic solubility in 50 mM aqueous phosphate buffer of pH 9.9 at 22.5 degC by HPLC analysis

[3] = physchem; details: octanol/water
Description: Lipophilicity, log P of the compound

[4] = physchem; details: octanol/water, pH 7.4
[5] = physchem; details: aqueous solution, pH 1
Description: Chemical stability in aqueous solution at pH 1 after 2 hrs

Compound | pKa [1] | solubility thermodynamic [2] [mM] | logP [3] | logD [4] | remaining at 2 h [5] [%]
CN(C)C1(CCCc2ccc(C(C)(C)C)cc2)COC1 | 7.2 | 0.21 (≈ 57.8 µg/mL) | 3.6 | 3.3 | 
CC1(C)CCCN(Cc2ccc3c(c2)OCO3)C1 | 9.4 | 0.053 (≈ 13.1 µg/mL) | 4.3 | 2.3 | 
c1cc2c(cc1CN1CCCCC1)OCO2 | 9.6 | 2.1 (≈ 460 µg/mL) |  |  | 
CC1(C)CCN(Cc2ccc3c(c2)OCO3)C1 | 9.7 | 0.17 (≈ 39.7 µg/mL) | 3.7 | 1.4 | 
c1cc2c(cc1CN1CCC1)OCO2 | 9.5 | 13 (≈ 2490 µg/mL) | 2.1 | -0.1 | 
O=C1CCCN(Cc2ccc3c(c2)OCO3)C1 | 7.6 | 9 (≈ 2100 µg/mL) | 0.5 | 0.1 | 
c1cc2c(cc1CN1CCCCC13COC3)OCO2 | 7 | 2.9 (≈ 758 µg/mL) | 2.4 | 2.2 | 
O=C1CCN(Cc2ccc3c(c2)OCO3)C1 | 6.1 | 19 (≈ 4170 µg/mL) | -0.1 | 0.1 | 
CC1(C)CCCN1Cc1ccc2c(c1)OCO2 | 10 | 0.18 (≈ 42 µg/mL) | 3.5 | 0.9 | 
O=C1CCCCN1Cc1ccc2c(c1)OCO2 |  | 27 (≈ 6300 µg/mL) | 1.6 | 1.6 | 
CN(C)CCCCc1ccc(C2(O)COC2)cc1 | 9.6 | 300 (≈ 74800 µg/mL) |  |  | 
CN(C)CCC1(Cc2ccc(C(C)(C)C)cc2)COC1 | 9.2 | 15 (≈ 4130 µg/mL) | 3.5 | 1.7 | 
c1cc2c(cc1CN1CC3CC(C1)O3)OCO2 | 7.1 | > 11 |  |  | 
c1cc2c(cc1CN1CCCC3(COC3)C1)OCO2 | 7.9 | 7.7 (≈ 2010 µg/mL) | 2.3 | 1.7 | 
CC1(C)CCCCN1Cc1ccc2c(c1)OCO2 | 10.2 | 0.12 (≈ 29.7 µg/mL) | 3.9 | 1.1 | 
CN(C)CCCC1(c2ccc(C(C)(C)C)cc2)COC1 | 9.6 | 0.98 (≈ 270 µg/mL) | 3.9 | 1.7 | 
c1cc2c(cc1CN1CCC3(CC1)COC3)OCO2 | 8.3 | 5.4 (≈ 1410 µg/mL) | 2 | 1 | 
c1cc2c(cc1CN1CCOCC1)OCO2 | 7 | 36 (≈ 7970 µg/mL) | 1.6 | 1.5 | 

Compound | pKa [1] | solubility thermodynamic [2] [mM] | logP [3] | logD [4] | remaining at 2 h [5] [%]
O=C1CCN1Cc1ccc2c(c1)OCO2 |  | 10 (≈ 2050 µg/mL) | 1.1 | 1.1 | 
CN(C)CCCCc1ccc(C2COC2)cc1 | 9.9 | 17 (≈ 3970 µg/mL) | 2.4 | -0.1 | 83
O=C1CCCN1Cc1ccc2c(c1)OCO2 |  | 6.8 (≈ 1490 µg/mL) | 1.2 | 1.2 | 
CN(C)CCCCc1ccc(C2(F)COC2)cc1 | 9.9 | 24 (≈ 6030 µg/mL) | 2 | -0.5 | 
c1cc2c(cc1CN1CC3(COC3)C1)OCO2 | 8 | 100 (≈ 23300 µg/mL) | 1.2 | 0.5 | 
c1cc2c(cc1CN1CCC13COC3)OCO2 | 6.2 | 6 (≈ 1400 µg/mL) | 1.3 | 1.3 | 
c1cc2c(cc1CN1CCC3(COC3)C1)OCO2 | 8.1 | 3 (≈ 742 µg/mL) | 1.5 | 0.7 | 
CN(C)CCCCc1ccc(C2(C)COC2)cc1 | 9.9 | 18 (≈ 4450 µg/mL) | 3.3 | 0.8 | 
CC1(C)CCN(Cc2ccc3c(c2)OCO3)CC1 | 9.5 | 0.89 (≈ 220 µg/mL) | 4.4 | 2.3 | 
CC1(C)CCN1Cc1ccc2c(c1)OCO2 | 10.1 | 1.7 (≈ 373 µg/mL) | 2.8 | 0.1 | 
CN(C)CC(C)(C)CCc1ccc(C(C)(C)C)cc1 |  | 0.004 (≈ 1.05 µg/mL) |  |  | 
c1cc2c(cc1CN1CCCC13COC3)OCO2 | 6.3 | 8.5 (≈ 2100 µg/mL) | 1.9 | 1.9 | 
CN(C)CCCCc1ccc(C(C)(C)C)cc1 |  | < 0.004 | 5 |  | 
CN(C)CCC(C)(C)Cc1ccc(C(C)(C)C)cc1 | 9.5 |  |  |  | 
CC1(C)CN(Cc2ccc3c(c2)OCO3)C1 | 9.6 | 1.3 (≈ 285 µg/mL) | 3.1 | 0.8 | 
c1cc2c(cc1CN1CCCC1)OCO2 | 9.7 | 2.8 (≈ 575 µg/mL) | 2.5 | 0.2 | 
CN(C)CCCC(C)(C)c1ccc(C(C)(C)C)cc1 |  | < 0.004 |  |  | 
CCc1ccc(CCCCN(C)C)cc1 | 9.9 | 0.25 (≈ 51.3 µg/mL) | 4.3 | 1.8 | 
